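Tested at 5 concentrations; 48 h exposure; 96-well plates; endpoints linearly interpolated, else capped at highest concentration. The concentration for 50% growth inhibition is given as GI50. TGI: total growth inhibition.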
What was measured:
Assay in all cases: NCI tumour cell line growth inhibition, 48 h
[1] = test system: CAKI-1 renal
[2] = test system: SNB-75 CNS
[3] = test system: K-562 leukemia
[4] = test system: SF-295 CNS
[5] = test system: SK-OV-3 ovarian
[6] = test system: LOX IMVI melanoma
[7] = test system: A498 renal
[8] = test system: RPMI-8226 leukemia
[9] = test system: MALME-3M melanoma
[10] = test system: NCI-H522 lung
[11] = test system: HL-60(TB) leukemia
[12] = test system: NCI-H460 lung
[13] = test system: NCI-H226 lung
[14] = test system: IGROV1 ovarian
[15] = test system: SK-MEL-5 melanoma
[16] = test system: ACHN renal
[17] = test system: M14 melanoma
[18] = test system: TK-10 renal
[19] = test system: OVCAR-5 ovarian
[20] = test system: HCT-116 colon
[21] = test system: HS 578T breast
[22] = test system: SK-MEL-28 melanoma
[23] = test system: OVCAR-3 ovarian
[24] = test system: BT-549 breast
[25] = test system: MOLT-4 leukemia
[26] = test system: SN12C renal
[27] = test system: HCT-15 colon
[28] = test system: PC-3 prostate
[29] = test system: KM12 colon
[30] = test system: T-47D breast
[31] = test system: MDA-MB-231 breast
[32] = test system: OVCAR-8 ovarian
[33] = test system: UACC-62 melanoma
[34] = test system: RXF 393 renal
[35] = test system: SW-620 colon
[36] = test system: SF-268 CNS
[37] = test system: MDA-MB-435
[38] = test system: HCC-2998 colon
[39] = test system: SNB-19 CNS
[40] = test system: DU-145 prostate
[41] = test system: 786-0 renal
[42] = test system: SF-539 CNS
[43] = test system: NCI/ADR-RES ovarian
[44] = test system: UACC-257 melanoma
[45] = test system: HT29 colon
[46] = test system: U251 CNS
[47] = test system: HOP-92 NSCLC
[48] = test system: COLO 205 colon
[49] = test system: OVCAR-4 ovarian
[50] = test system: SK-MEL-2 melanoma
[51] = test system: HOP-62 NSCLC
[52] = test system: MCF7 breast
[53] = test system: A549 NSCLC
[54] = test system: NCI-H23 lung
[55] = test system: CCRF-CEM leukemia
[56] = test system: UO-31 renal

## CCN(Cc1ccccc1F)c1ccc(CO)c(Cl)c1
[1]
  GI50: 3.81 µM
  TGI: 39.9 µM
[2]
  GI50: 11 µM
  TGI: 46.4 µM
[3]
  GI50: 0.535 µM
  TGI: > 39 µM
[4]
  GI50: 0.7 µM
  TGI: 17.2 µM
[5]
  GI50: 4.28 µM
  TGI: 17.9 µM
[6]
  GI50: 20.3 µM
  TGI: 44.2 µM
[7]
  GI50: < 0.0179 µM
  TGI: 0.0594 µM
[8]
  GI50: 0.796 µM
  TGI: 22.8 µM
[9]
  GI50: 17.7 µM
  TGI: 39.5 µM
[10]
  GI50: 16.3 µM
  TGI: 39.1 µM
[11]
  GI50: 17.7 µM
  TGI: 47.3 µM
[12]
  GI50: 0.0604 µM
  TGI: 11 µM
[13]
  GI50: 0.0137 µM
  TGI: 0.0511 µM
[14]
  GI50: < 0.0231 µM
[15]
  GI50: 2.66 µM
  TGI: 21.1 µM
[16]
  GI50: 19.2 µM
  TGI: > 53.4 µM
[17]
  GI50: 19.9 µM
  TGI: 41.7 µM
[18]
  GI50: < 0.0201 µM
  TGI: 0.0651 µM
[19]
  GI50: 0.0428 µM
  TGI: 0.234 µM
[20]
  GI50: < 0.0273 µM
  TGI: 11.3 µM
[21]
  GI50: 26.5 µM
  TGI: > 66.4 µM
[22]
  GI50: 13.5 µM
  TGI: 31.3 µM
[23]
  GI50: 0.176 µM
  TGI: 1.5 µM
[24]
  GI50: 15.8 µM
  TGI: 30.6 µM
[25]
  GI50: 22.5 µM
  TGI: 56.2 µM
[26]
  GI50: 13.5 µM
  TGI: 38.6 µM
[27]
  GI50: 11.5 µM
  TGI: 47.2 µM
[28]
  GI50: 18.9 µM
  TGI: > 62.8 µM
[29]
  GI50: 18.5 µM
  TGI: 47.7 µM
[30]
  GI50: < 0.0213 µM
  TGI: 0.177 µM
[31]
  GI50: 16.3 µM
  TGI: 41.7 µM
[32]
  GI50: 13.2 µM
  TGI: > 57 µM
[33]
  GI50: 0.0409 µM
  TGI: 0.992 µM
[34]
  GI50: 4.35 µM
  TGI: 24.8 µM
[35]
  GI50: 0.49 µM
  TGI: > 46.5 µM
[36]
  GI50: 26.6 µM
  TGI: > 60.7 µM
[37]
  GI50: 17.2 µM
  TGI: 40.2 µM
[38]
  GI50: 8.41 µM
  TGI: 25 µM
[39]
  GI50: 28.4 µM
  TGI: > 94.6 µM
[40]
  GI50: 18.4 µM
  TGI: > 60 µM
[41]
  GI50: 15.9 µM
  TGI: 41 µM
[42]
  GI50: 16.8 µM
  TGI: 34.5 µM
[43]
  GI50: 15.9 µM
  TGI: 52.8 µM
[44]
  GI50: < 0.0346 µM
  TGI: 0.134 µM
[45]
  GI50: 3.38 µM
  TGI: 21.4 µM
[46]
  GI50: 0.256 µM
  TGI: 24.2 µM
[47]
  GI50: 0.301 µM
  TGI: 8.72 µM
[48]
  GI50: 2.45 µM
  TGI: 7.86 µM
[49]
  GI50: 0.0793 µM
  TGI: 5.88 µM
[50]
  GI50: 1.81 µM
  TGI: 19.9 µM
[51]
  GI50: 1.34 µM
  TGI: 17.8 µM
[52]
  GI50: 0.0892 µM
  TGI: 12.7 µM
[53]
  GI50: 1.03 µM
  TGI: 21.8 µM
[54]
  GI50: 14.6 µM
  TGI: 57.1 µM
[55]
  GI50: 24.2 µM
  TGI: > 75.4 µM
[56]
  GI50: 13.2 µM
  TGI: 46.4 µM

From PubChem BioAssay (NCI)
